# Measurements reported in ChEMBL document CHEMBL1136787, “Design, synthesis, and biological evaluation of monopyrrolinone-based HIV-1 protease inhibitors” (J Med Chem, 2003).
# Legend:
# [1] = Ratio (CIC95/IC50) of cellular antiviral activity over the isolated enzyme potency; type: functional
# [2] = system: Human immunodeficiency virus 1; experiment: Anti-viral activity was determined; type: functional; settings: read-out: CIC95
# [3] = target: T1, Human immunodeficiency virus type 1 protease (Human immunodeficiency virus 1, UniProt Q72874); experiment: Inhibitory activity against HIV-1 protease was determined
# [4] = target: T1, Human immunodeficiency virus type 1 protease; experiment: Inhibitory activity against HIV-1 protease mutant was determined
Compound,C/I [1],IC95 [2] [nM],IC50 [3] [nM],IC50 [4] [nM]
CC(C)(C)NC(=O)[C@@H]1CN(Cc2cccnc2)CCN1C[C@@H](O)C[C@@H](Cc1ccccc1)C(=O)N[C@H]1c2ccccc2C[C@H]1O.O,69,25,–,–
CC(C)C[C@@]1(C2=C(O)[C@](Cc3ccccc3)(C[C@H](O)[C@H](Cc3ccccc3)NC(=O)OC(C)(C)C)N=C2)N=CC([C@@H](Cc2ccccc2)C(N)=O)=C1O,–,1500,10,–
"O=C(N[C@@H](Cc1ccccc1)[C@@H](O)C[C@]1(Cc2ccccc2)N=CC(C2CNC(=O)c3ccccc32)=C1O)O[C@H]1CCOC1 (single isomer, unassigned; (+))",137,781,–,–
"CC(C)(C)OC(=O)N[C@@H](Cc1ccccc1)[C@@H](O)C[C@]1(Cc2ccccc2)N=CC(C2c3ccccc3C[C@H]2O)=C1O (single isomer, unassigned; (-))",–,800,–,–
O=C(N[C@@H](Cc1ccccc1)[C@@H](O)C[C@@H](Cc1ccccc1)C(=O)N[C@H]1c2ccccc2C[C@H]1O)OC1CCOC1 (stereo partly drawn),100,3,–,–
CC(C)(C)OC(=O)N[C@@H](Cc1ccccc1)[C@@H](O)C[C@@H](Cc1ccccc1)C(=O)N[C@H]1c2ccccc2C[C@H]1O,1333,400,–,–
"O=C(N[C@@H](Cc1ccccc1)[C@@H](O)C[C@]1(Cc2ccccc2)N=CC(C2c3ccccc3C[C@H]2O)=C1O)O[C@H]1CCOC1 (single isomer, unassigned; (-))",–,100,–,129
"NC(=O)O[C@@H]1Cc2ccccc2C1C1=C(O)[C@](Cc2ccccc2)(C[C@H](O)[C@H](Cc2ccccc2)NC(=O)O[C@H]2CCOC2)N=C1 (single isomer, unassigned; (-))",125,250,–,364
"CC(C)C[C@@]1(C2=C(O)[C@](Cc3ccccc3)(C[C@H](O)[C@H](Cc3ccccc3)NC(=O)OC3CCOC3)N=C2)N=CC([C@@H](Cc2ccccc2)C(N)=O)=C1O (single isomer, unassigned; (-))",–,800,1.3,–
